Results reported in ChEMBL document CHEMBL1201862, “PubChem BioAssay data set” (2004).
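1) Cells in 96-well plates. 2) Compound, 48 h, 5 concentrations. 3) Linear interpolation between surrounding doses. 4) Unreached endpoint = highest concentration. GI50 marks 50% less growth.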 Activity calls are given as the source filed them. No stated cut-off is given here; in the data, active = GI50 up to about 1.1 µM and inactive = higher.

What was measured:
Test in all cases: DTP human tumour cell line panel, 48 h
786-0 = test system: 786-0
A498 = test system: A498
A549 = test system: A549
ACHN = test system: ACHN
CAKI-1 = test system: CAKI-1
CCRF-CEM = test system: CCRF-CEM
DLD-1 = test system: DLD-1
DMS-114 = test system: DMS-114
DMS-273 = test system: DMS-273
EKVX = test system: EKVX
HCC 2998 = test system: HCC 2998
HCT-116 = test system: HCT-116
HCT-15 = test system: HCT-15
HL-60 = test system: HL-60
HOP-18 = test system: HOP-18
HOP-62 = test system: HOP-62
HOP-92 = test system: HOP-92
HT-29 = test system: HT-29
IGROV-1 = test system: IGROV-1
K562 = test system: K562
KM-20L2 = test system: KM-20L2
KM12 = test system: KM12
LOX IMVI = test system: LOX IMVI
LXFL 529 = test system: LXFL 529
M14 = test system: M14
M19-MEL = test system: M19-MEL
MOLT-4 = test system: MOLT-4
Malme-3M = test system: Malme-3M
NCI-H226 = test system: NCI-H226
NCI-H23 = test system: NCI-H23
NCI-H460 = test system: NCI-H460
NCI-H522 = test system: NCI-H522
OVCAR-3 = test system: OVCAR-3
OVCAR-4 = test system: OVCAR-4
OVCAR-5 = test system: OVCAR-5
OVCAR-8 = test system: OVCAR-8
RPMI-8226 = test system: RPMI-8226
RXF 393 = test system: RXF 393
SF-268 = test system: SF-268
SF-295 = test system: SF-295
SF-539 = test system: SF-539
SK-MEL-28 = test system: SK-MEL-28
SK-MEL-2 = test system: SK-MEL-2
SK-MEL-5 = test system: SK-MEL-5
SK-OV-3 = test system: SK-OV-3
SN12C = test system: SN12C
SNB-19 = test system: SNB-19
SNB-75 = test system: SNB-75
SNB-78 = test system: SNB-78
SR = test system: SR
SW-620 = test system: SW-620
TK-10 = test system: TK-10
U-251 = test system: U-251
UACC-257 = test system: UACC-257
UACC-62 = test system: UACC-62
UO-31 = test system: UO-31
XF498 = test system: XF498
COLO 205 = test system: COLO 205
DU-145 = test system: DU-145
Hs-578T = test system: Hs-578T
MCF7 = test system: MCF7
MDA-MB-231 = test system: MDA-MB-231
MDA-MB-435 = test system: MDA-MB-435
MDA-N = test system: MDA-N
NCI/ADR-RES = test system: NCI/ADR-RES
PC-3 = test system: PC-3
T47D = test system: T47D

## COC(=O)C(/C(=N/NC(N)=O)C(=O)Nc1c(C)cccc1C(C)(C)C)c1nc2ccc(Cl)cc2nc1O (centres undefined)
786-0
  GI50: > 100 µM (inactive)
A498
  GI50: > 100 µM (inactive)
A549
  GI50: > 100 µM (inactive)
ACHN
  GI50: > 100 µM (inactive)
CAKI-1
  GI50: > 100 µM (inactive)
CCRF-CEM
  GI50: > 100 µM (inactive)
DLD-1
  GI50: > 100 µM (inactive)
DMS-114
  GI50: > 100 µM (inactive)
DMS-273
  GI50: > 100 µM (inactive)
EKVX
  GI50: 75.5 µM (inactive)
HCC 2998
  GI50: > 100 µM (inactive)
HCT-116
  GI50: > 100 µM (inactive)
HCT-15
  GI50: > 100 µM
HL-60
  GI50: > 100 µM (inactive)
HOP-18
  GI50: > 100 µM (inactive)
HOP-62
  GI50: > 100 µM (inactive)
HOP-92
  GI50: > 100 µM (inactive)
HT-29
  GI50: > 100 µM (inactive)
IGROV-1
  GI50: > 100 µM (inactive)
K562
  GI50: > 100 µM (inactive)
KM-20L2
  GI50: > 100 µM (inactive)
KM12
  GI50: > 100 µM (inactive)
LOX IMVI
  GI50: > 100 µM (inactive)
LXFL 529
  GI50: > 100 µM (inactive)
M14
  GI50: > 100 µM (inactive)
M19-MEL
  GI50: > 100 µM (inactive)
MOLT-4
  GI50: > 100 µM (inactive)
Malme-3M
  GI50: > 100 µM (inactive)
NCI-H226
  GI50: > 100 µM (inactive)
NCI-H23
  GI50: > 100 µM (inactive)
NCI-H460
  GI50: > 100 µM (inactive)
NCI-H522
  GI50: > 100 µM (inactive)
OVCAR-3
  GI50: > 100 µM (inactive)
OVCAR-4
  GI50: > 100 µM (inactive)
OVCAR-5
  GI50: > 100 µM (inactive)
OVCAR-8
  GI50: > 100 µM (inactive)
RPMI-8226
  GI50: > 100 µM (inactive)
RXF 393
  GI50: > 100 µM (inactive)
SF-268
  GI50: > 100 µM (inactive)
SF-295
  GI50: > 100 µM (inactive)
SF-539
  GI50: > 100 µM (inactive)
SK-MEL-28
  GI50: > 100 µM (inactive)
SK-MEL-2
  GI50: > 100 µM (inactive)
SK-MEL-5
  GI50: > 100 µM (inactive)
SK-OV-3
  GI50: > 100 µM (inactive)
SN12C
  GI50: > 100 µM (inactive)
SNB-19
  GI50: > 100 µM (inactive)
SNB-75
  GI50: > 100 µM (inactive)
SNB-78
  GI50: > 100 µM (inactive)
SR
  GI50: 37.5 µM (inactive)
SW-620
  GI50: > 100 µM (inactive)
TK-10
  GI50: > 100 µM (inactive)
U-251
  GI50: > 100 µM (inactive)
UACC-257
  GI50: > 100 µM (inactive)
UACC-62
  GI50: > 100 µM (inactive)
UO-31
  GI50: > 100 µM (inactive)
XF498
  GI50: > 100 µM (inactive)

## CC1=C(C(=O)Nc2ccccc2)C(c2ccc(N(C)C)cc2)C(C(=O)Nc2ccccc2)=C(C)N1
786-0
  GI50: 29.6 µM (inactive)
A498
  GI50: > 100 µM (inactive)
A549
  GI50: 3.31 µM (inactive)
ACHN
  GI50: 0.494 µM (active)
CAKI-1
  GI50: 25.3 µM (inactive)
CCRF-CEM
  GI50: 3.94 µM (inactive)
COLO 205
  GI50: 1.41 µM (inactive)
DLD-1
  GI50: 8.36 µM (inactive)
DMS-114
  GI50: 0.211 µM (active)
DMS-273
  GI50: 0.428 µM (active)
DU-145
  GI50: 3.17 µM (inactive)
EKVX
  GI50: 62.8 µM (inactive)
HCC 2998
  GI50: 2.86 µM (inactive)
HCT-116
  GI50: 4.72 µM (inactive)
HCT-15
  GI50: 0.493 µM
HL-60
  GI50: 5.3 µM (inactive)
HOP-18
  GI50: > 100 µM (inactive)
HOP-62
  GI50: 5 µM (inactive)
HOP-92
  GI50: 65.9 µM (inactive)
HT-29
  GI50: 3.72 µM (inactive)
Hs-578T
  GI50: > 100 µM (inactive)
IGROV-1
  GI50: 16.9 µM (inactive)
K562
  GI50: 1.09 µM (active)
KM-20L2
  GI50: 0.439 µM (active)
KM12
  GI50: 0.964 µM (active)
LOX IMVI
  GI50: 2.82 µM (inactive)
LXFL 529
  GI50: 0.175 µM (active)
M14
  GI50: 1.5 µM (inactive)
M19-MEL
  GI50: 0.685 µM (active)
MCF7
  GI50: 10.3 µM (inactive)
MDA-MB-231
  GI50: 29.1 µM (inactive)
MDA-MB-435
  GI50: 0.804 µM (active)
MDA-N
  GI50: 1.75 µM (inactive)
MOLT-4
  GI50: 2.89 µM (inactive)
Malme-3M
  GI50: 4.79 µM (inactive)
NCI-H226
  GI50: > 89.5 µM (inactive)
NCI-H23
  GI50: 24.9 µM (inactive)
NCI-H460
  GI50: 1.43 µM (inactive)
NCI-H522
  GI50: 6.64 µM (inactive)
NCI/ADR-RES
  GI50: > 100 µM (inactive)
OVCAR-3
  GI50: 8.69 µM (inactive)
OVCAR-4
  GI50: 50.8 µM (inactive)
OVCAR-5
  GI50: 18.6 µM (inactive)
OVCAR-8
  GI50: 11.9 µM (inactive)
PC-3
  GI50: 4.08 µM (inactive)
RPMI-8226
  GI50: 3.13 µM (inactive)
RXF 393
  GI50: > 85.1 µM (inactive)
SF-268
  GI50: 9.31 µM (inactive)
SF-295
  GI50: 3.54 µM (inactive)
SF-539
  GI50: 9.59 µM (inactive)
SK-MEL-28
  GI50: 12.4 µM (inactive)
SK-MEL-2
  GI50: > 70.1 µM (inactive)
SK-MEL-5
  GI50: 1.1 µM (active)
SK-OV-3
  GI50: 59.2 µM (inactive)
SN12C
  GI50: 46.3 µM (inactive)
SNB-19
  GI50: 64.3 µM (inactive)
SNB-75
  GI50: 35.6 µM (inactive)
SNB-78
  GI50: > 37.1 µM (inactive)
SR
  GI50: 11.1 µM (inactive)
SW-620
  GI50: 13.7 µM (inactive)
T47D
  GI50: 3.33 µM (inactive)
TK-10
  GI50: 39.4 µM (inactive)
U-251
  GI50: 15.9 µM (inactive)
UACC-257
  GI50: 8.32 µM (inactive)
UACC-62
  GI50: 0.2 µM (active)
UO-31
  GI50: 2.37 µM (inactive)
XF498
  GI50: > 100 µM (inactive)
